The values that follow come from PMC9650428, “Mutagenesis and functional analysis of SotB: A multidrug transporter of the major facilitator superfamily from Escherichia coli” (Frontiers in Microbiology, 2022).

Numbering of substitutions follows the chain as printed. pKd: −log10 of the molar value.

Test [1] deals with sotB-deletion E. coli MG1655 strain. As to the kind of experiment: Growth curve (L-arabinose inhibition) assay, sotB-deletion MG1655. Format: cell-based, Escherichia coli. An excerpt:
In the process of sotB gene knockout, two plasmids were introduced into E. coli MG1655 strain: the plasmid pEcCas expressing Cas9 protein (kanamycin resistance) and the plasmid pEcgRNA/sotB expressing related gRNA (spectinomycin resistance). The pEcCas plasmid was successfully eliminated in this study. […] Thus, the sotB-deletion strain has resistance to spectinomycin. In order to carry out the related L-arabinose inhibition assay more strictly, the same plasmid (pEcgRNA/sotB) was then transformed into intact E. coli MG1655 cells, and the growth conditions of the two strains were measured as follows: The E. coli MG1655 cells (intact cells and sotB-deletion cells) were grown in liquid LB medium containing spectinomycin (50 μg/ml) at 37°C for overnight. The cells were then diluted to an OD600 value of 0.8 with liquid LB medium containing spectinomycin (50 μg/ml). Then, the cells were further diluted 1,000 times with liquid LB medium containing spectinomycin (50 μg/ml). The diluted cells were added to a 96-well plate (200 μl/well). Then, L-arabinose was added with final concentrations of 0 μM, 10 μM, 100 μM, 1 mM, 10 mM, and 100 mM, respectively. The 96-well plate was incubated at 37°C, and the OD600 value was measured every 1 h with a microplate reader. […]

In a further test the target is T1, SotB N343A (Escherichia coli, UniProt P31122, N343A).
T1 construct: The full-length sotB and lapC genes from the E. coli MG1655 genome were subcloned into the cloning vector pET28a; 8xHis (C); made in house; host or cells: E. coli C43(DE3)
T1 sequence (P31122 1-396 N343A): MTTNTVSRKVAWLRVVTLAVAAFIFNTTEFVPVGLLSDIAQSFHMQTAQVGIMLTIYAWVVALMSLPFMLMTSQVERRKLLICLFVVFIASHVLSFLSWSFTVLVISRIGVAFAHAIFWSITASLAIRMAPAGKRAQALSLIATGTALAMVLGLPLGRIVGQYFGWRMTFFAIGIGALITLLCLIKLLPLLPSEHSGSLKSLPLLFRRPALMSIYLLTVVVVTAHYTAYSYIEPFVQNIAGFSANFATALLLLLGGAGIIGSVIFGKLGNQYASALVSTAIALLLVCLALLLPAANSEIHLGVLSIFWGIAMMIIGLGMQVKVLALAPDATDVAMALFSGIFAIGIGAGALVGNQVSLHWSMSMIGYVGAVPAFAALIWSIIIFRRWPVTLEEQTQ
As to the kind of experiment: SPR affinity assay, SotB variant N343A. Format: binding. The protocol: (§1) The instrument used in surface plasmon resonance (SPR) affinity assays was OpenSPR (Nicoya, Canada) and the chip used was COOH sensor chip (Nicoya, Canada). SotB and its variants were as ligands. IPTG, L-arabinose, D-xylose, D-glucose, D-fructose, and D-mannose were as small molecules. Using HSB-EP buffer (10 mM HEPES, 150 mM NaCl, 3 mM EDTA, 0.005% Tween-20, pH7.4) as test buffer and setting flow rate 150 μl/min after installed COOH chip according to OpenSPRTM instrument standard operating procedure. After the signal baseline was reached, loading 200 μl 80% isopropyl alcohol and ran for 10 s to drain bubbles. After reaching baseline, the sample ring was rinsed with HSB-EP buffer and emptied with air. After the signal reached the baseline, loading 200 μl EDC (400 mM, Sigma)/NHS (100 mM, Sigma; 1:1) solution with a flow rate 20 μl/min for 4 min. Then, loading 200 μl ligand (SotB/SotB variants) diluted by the activation buffer (sodium acetate, 10 mM, pH3.5) and ran for 4 min (20 μl/min). Then the sample ring was rinsed with HSB-EP buffer and emptied with air. Loading 200 μl 1 M ethanolamine (Sigma) blocking solution (20 μl/min, 4 min), rinsed the sample ring with HSB-EP buffer, and emptied the sample ring with air. Observing baseline for 5 min to ensure stability. The small molecules were diluted with PBS buffer (2 mM of KH2PO4, 10 mM of Na2HPO4, 2.7 mM of KCl, and 137 mM of NaCl at pH 7.4), and the concentration was shown in the experimental results. The flow rate for small molecules was performed at 20 μl/min. The binding time of small molecule and ligand was 240 s, and the dissociation was 240 s. The analysis software used for the experimental results was TraceDrawer, and the analysis method was one-to-one analysis model.

The next test concerns the target T2, SotB E29A (Escherichia coli, UniProt P31122, E29A).
T2 construct: The full-length sotB and lapC genes from the E. coli MG1655 genome were subcloned into the cloning vector pET28a; 8xHis (C); made in house; host or cells: E. coli C43(DE3)
T2 sequence (P31122 1-396 E29A): T1 sequence (P31122 1-396 N343A) with E29A, A343N
The experiment in a line: SPR affinity assay, SotB variant E29A. As to conditions: read-out: KD, binding affinity with E29A. The procedure: as §1, with “The small molecules were diluted with PBS buffer (2 mM of KH2PO4, 10 mM of Na2HPO4, 2.7 mM of KCl, and 137 mM of NaCl at pH 7.4), and the concentration was shown in the experimental results. The flow rate for small molecules was performed at 20 μl/min. The binding time of small molecule and ligand was 240 s, and the dissociation was 240 s. The analysis software used for the experimental results was TraceDrawer, and the analysis method was one-to-one analysis model.” left out

Another test has as its target T3, SotB W119A (Escherichia coli, UniProt P31122, W119A).
T3 construct: The full-length sotB and lapC genes from the E. coli MG1655 genome were subcloned into the cloning vector pET28a; 8xHis (C); made in house; host or cells: E. coli C43(DE3)
T3 sequence (P31122 1-396 W119A): T1 sequence (P31122 1-396 N343A) with W119A, A343N
The experiment in a line: SPR affinity assay, SotB variant W119A. As to conditions: read-out: KD, binding affinity with W119A. The procedure: as §1, with “The small molecules were diluted with PBS buffer (2 mM of KH2PO4, 10 mM of Na2HPO4, 2.7 mM of KCl, and 137 mM of NaCl at pH 7.4), and the concentration was shown in the experimental results. The flow rate for small molecules was performed at 20 μl/min. The binding time of small molecule and ligand was 240 s, and the dissociation was 240 s. The analysis software used for the experimental results was TraceDrawer, and the analysis method was one-to-one analysis model.” left out

In the case of `OC1OC[C@H](O)[C@H](O)[C@H]1O` (mixture of isomers) [L-arabinose], the “Effect on growth (OD600 growth curve)” value in test [1] (sotB-deletion MG1655, 10 mM final concentration) is on record as “significantly inhibit”; in test [1] (sotB-deletion MG1655, 100 mM final concentration), “significantly inhibit”. The “Binding affinity of N343A, fold lower than the wild-type protein” value at SotB N343A (N343A vs wild-type SotB) amounted to 3.5 fold. In addition, the pKd was 1.84 at SotB N343A (SotB variant N343A, read-out: KD, binding affinity with N343A); 2.29 on SotB E29A; 2.31 on SotB W119A.
